Source: patent US20190031717A1, “MULTI-FUNCTIONAL FUSION POLYPEPTIDE, PREPARATION METHOD THEREOF, AND APPLICATION OF SAME” (NANJING ANJI BIOLOGICAL TECHNOLOGY CO., LTD, priority 2016, published 2019)

Legend:
adenovirus concentrate = experiment: Mouse pneumonia model, viral; type: in vivo, BALB/C mice; details: mean ± SD
Procedure: (§1) The mouse pneumonia model was successfully established by the nose-drop method. To build the mouse pneumonia model, BALB/C mice with a body mass of 16-22 g were selected and anesthetized pneumonia chain was prepared after anesthesia with ether on day 0, day 1, and day 2. Staphylococcal fluid, adenovirus concentrate, Mycoplasma pneumoniae, Chlamydia pneumoniae, protozoa, and pneumonia fungi were slowly dripped into the nasal cavity of the mice, so that they enter the tracheobronchial. During the operation process, care was exercised to prevent bacterial fluid from flowing into the esophagus, which leads to inactivation the bacterial fluid. After successful model establishment, the polypeptides of the present invention were administered, and the results were shown in Table 5. […] The results were expressed in average value±standard deviation.

Melanoma = experiment: MTT assay, tumor cells; type: cell-based, human; parameters: concentration or dose not given beside the values; details: 48 hours, mean ± SD
Procedure: (§2) A variety of human tumor cells were cultured in a 37° C., 5% (volume fraction) CO2 incubator to a density of 90% or more, collected by trypsinization, resuspended in a culture medium and counted under a microscope, and the cells were harvested. The concentration was adjusted to 2.0×10^4 cells/mL, the cell suspension was inoculated into a 96-well plate at 100 μL per well and cultured overnight at 37° C. in a 5% (volume fraction) CO2 incubator. After the cells were completely adhered, the polypeptides of the present invention were added as drug-administered groups, and a culture solution containing no drug was used as a blank control group, and the culture solution was diluted to each predetermined concentration. Each dilution was separately added to a 96-well plate at 100 μL per well and incubated for 48 hours at 37° C. in a 5% (volume fraction) CO2 incubator. 20 μL of 5 mg/mL MTT was added to each well of a 96-well plate and incubation was continued for 4 h. The medium was aspirated and dissolved in 100 μL of DMSO per well. The absorbance was measured with a microplate reader at a detection wavelength of 570 nm and a reference wavelength of 630 nm, and the growth inhibition rate was calculated as follows: tumor growth inhibition rate (%)=(1−absorbance value of the administered group/unadministered group absorbance value)×100%, and the experiment was repeated 3 times independently. The results obtained from the test were expressed as mean±standard deviation, and the tumor growth inhibition rate of the unadministered group was 0. The results in Table 7 indicate that the polypeptides of the present invention have a significant inhibitory effect on the growth of various tumors (FIG. 6).

Thyroid cancer = experiment: MTT assay, tumor cells; type: cell-based, human; parameters: concentration or dose not given beside the values; details: 48 hours, mean ± SD
Procedure: as §2

Hemangioma = experiment: MTT assay, tumor cells; type: cell-based, human; parameters: concentration or dose not given beside the values; details: 48 hours, mean ± SD
Procedure: as §2

Esophageal cancer = experiment: MTT assay, tumor cells; type: cell-based, human; parameters: concentration or dose not given beside the values; details: 48 hours, mean ± SD
Procedure: as §2

Brain tumor = experiment: MTT assay, tumor cells; type: cell-based, human; parameters: concentration or dose not given beside the values; details: 48 hours, mean ± SD
Procedure: as §2

Prostate cancer = experiment: MTT assay, tumor cells; type: cell-based, human; parameters: concentration or dose not given beside the values; details: 48 hours, mean ± SD
Procedure: as §2

Bladder Cancer = experiment: MTT assay, tumor cells; type: cell-based, human; parameters: concentration or dose not given beside the values; details: 48 hours, mean ± SD
Procedure: as §2

Head and neck cancer = experiment: MTT assay, tumor cells; type: cell-based, human; parameters: concentration or dose not given beside the values; details: 48 hours, mean ± SD
Procedure: as §2

Liver cancer = experiment: MTT assay, tumor cells; type: cell-based, human; parameters: concentration or dose not given beside the values; details: 48 hours, mean ± SD
Procedure: as §2

sarcoma = experiment: MTT assay, tumor cells; type: cell-based, human; parameters: concentration or dose not given beside the values; details: 48 hours, mean ± SD
Procedure: as §2

Cervical cancer = experiment: MTT assay, tumor cells; type: cell-based, human; parameters: concentration or dose not given beside the values; details: 48 hours, mean ± SD
Procedure: as §2

Gastric cancer = experiment: MTT assay, tumor cells; type: cell-based, human; parameters: concentration or dose not given beside the values; details: 48 hours, mean ± SD
Procedure: as §2

Kidney cancer = experiment: MTT assay, tumor cells; type: cell-based, human; parameters: concentration or dose not given beside the values; details: 48 hours, mean ± SD
Procedure: as §2

Pancreatic cancer = experiment: MTT assay, tumor cells; type: cell-based, human; parameters: concentration or dose not given beside the values; details: 48 hours, mean ± SD
Procedure: as §2

Colorectal cancer = experiment: MTT assay, tumor cells; type: cell-based, human; parameters: concentration or dose not given beside the values; details: 48 hours, mean ± SD
Procedure: as §2

Breast cancer = experiment: MTT assay, tumor cells; type: cell-based, human; parameters: concentration or dose not given beside the values; details: 48 hours, mean ± SD
Procedure: as §2

Uterine cancer = experiment: MTT assay, tumor cells; type: cell-based, human; parameters: concentration or dose not given beside the values; details: 48 hours, mean ± SD
Procedure: as §2

Ovarian cancer = experiment: MTT assay, tumor cells; type: cell-based, human; parameters: concentration or dose not given beside the values; details: 48 hours, mean ± SD
Procedure: as §2

Mycoplasma pneumoniae = experiment: Mouse pneumonia model, mycoplasma; type: in vivo, BALB/C mice; parameters: concentration or dose not given beside the values; details: mean ± SD
Procedure: as §1

pneumonia fungi = experiment: Mouse pneumonia model, fungal; type: in vivo, BALB/C mice; parameters: concentration or dose not given beside the values; details: mean ± SD
Procedure: as §1

[1] = system: Pneumonia caused by lung infection; experiment: Mouse pneumonia model, pneumonia caused by lung infection; type: in vivo, BALB/C mice; parameters: concentration or dose not given beside the values; details: mean ± SD
Procedure: as §1

Pro-(D-Pyr)-(D-Cys)-Bip-Arg-Gly-Glu-Gly-Gly-Gly-Gly-Ile-Val-Arg-Arg-Ala-Asp-Arg-Ala-Ala-Val-Pro-Gly-Gly-Gly-Gly-Arg-Gly-Asp [Polypeptide I]
Inhibitory Effects on Various Pulmonary Infections (adenovirus concentrate): 43.78 ± 14.17%
tumor growth inhibition rate, MTT Assay (Melanoma): 42.41 ± 11.78%
tumor growth inhibition rate, MTT Assay (Thyroid cancer): 46.70 ± 12.97%
tumor growth inhibition rate, MTT Assay (Hemangioma): 76.08 ± 21.13%
tumor growth inhibition rate, MTT Assay (Esophageal cancer): 49.07 ± 13.63%
tumor growth inhibition rate, MTT Assay (Brain tumor): 51.00 ± 14.17%
tumor growth inhibition rate, MTT Assay (Prostate cancer): 60.28 ± 20.08%
tumor growth inhibition rate, MTT Assay (Bladder Cancer): 38.69 ± 10.75%
tumor growth inhibition rate, MTT Assay (Head and neck cancer): 36.22 ± 10.06%
tumor growth inhibition rate, MTT Assay (Liver cancer): 54.38 ± 15.11%
tumor growth inhibition rate, MTT Assay (sarcoma): 49.18 ± 13.66%
tumor growth inhibition rate, MTT Assay (Cervical cancer): 56.16 ± 22.27%
tumor growth inhibition rate, MTT Assay (Gastric cancer): 48.41 ± 16.78%
tumor growth inhibition rate, MTT Assay (Kidney cancer): 44.70 ± 15.75%
tumor growth inhibition rate, MTT Assay (Pancreatic cancer): 54.91 ± 18.59%
tumor growth inhibition rate, MTT Assay (Colorectal cancer): 63.55 ± 17.65%
tumor growth inhibition rate, MTT Assay (Breast cancer): 68.27 ± 18.96%
tumor growth inhibition rate, MTT Assay (Uterine cancer): 58.14 ± 19.48%
tumor growth inhibition rate, MTT Assay (Ovarian cancer): 67.74 ± 18.82%
Inhibitory Effects on Various Pulmonary Infections (Mycoplasma pneumoniae): 29.89 ± 12.97%
Inhibitory Effects on Various Pulmonary Infections (pneumonia fungi): 43.91 ± 15.11%
Inhibitory Effects on Various Pulmonary Infections [1]: 38.79 ± 16.78%
